These results are taken from ChEMBL document CHEMBL3991601, “The target landscape of clinical kinase drugs” (Science, 2017).

Each structure is given as a SMILES string. The source made the active and inactive calls. For most assays here, no stated cut-off is given here; in the data, actives have a measured Kd and inactives only a lower limit. Some results are limits rather than exact numbers.

The target in assay [1] is T1, Serine/threonine-protein kinase TAO3 (Homo sapiens, UniProt Q9H2K8).
T1 sequence (Q9H2K8 whole entry): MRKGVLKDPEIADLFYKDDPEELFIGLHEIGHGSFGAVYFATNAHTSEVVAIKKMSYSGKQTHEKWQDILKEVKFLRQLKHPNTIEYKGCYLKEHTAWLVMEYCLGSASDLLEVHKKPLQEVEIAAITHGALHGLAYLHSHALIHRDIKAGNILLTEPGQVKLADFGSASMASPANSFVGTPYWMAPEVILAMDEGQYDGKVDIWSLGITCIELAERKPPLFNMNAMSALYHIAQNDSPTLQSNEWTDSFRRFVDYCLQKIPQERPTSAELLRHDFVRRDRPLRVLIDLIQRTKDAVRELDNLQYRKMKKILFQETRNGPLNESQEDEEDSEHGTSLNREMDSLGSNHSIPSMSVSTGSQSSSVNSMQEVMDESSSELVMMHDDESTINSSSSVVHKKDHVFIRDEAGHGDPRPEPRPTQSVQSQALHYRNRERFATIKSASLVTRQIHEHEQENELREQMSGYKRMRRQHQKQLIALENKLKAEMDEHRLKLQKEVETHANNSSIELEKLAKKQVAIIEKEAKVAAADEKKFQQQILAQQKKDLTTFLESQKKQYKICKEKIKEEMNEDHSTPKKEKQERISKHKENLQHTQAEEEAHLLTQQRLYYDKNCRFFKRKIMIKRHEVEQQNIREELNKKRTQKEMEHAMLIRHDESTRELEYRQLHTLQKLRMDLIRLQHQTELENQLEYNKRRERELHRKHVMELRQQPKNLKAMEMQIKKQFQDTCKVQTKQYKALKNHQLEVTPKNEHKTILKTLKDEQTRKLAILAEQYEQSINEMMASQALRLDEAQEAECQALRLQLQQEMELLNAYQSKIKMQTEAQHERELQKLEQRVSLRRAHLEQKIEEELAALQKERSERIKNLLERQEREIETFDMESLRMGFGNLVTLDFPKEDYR

The target of assay [2] is T2, Serine/threonine-protein kinase 4 (Homo sapiens, UniProt Q13043).
T2 sequence (Q13043 whole entry): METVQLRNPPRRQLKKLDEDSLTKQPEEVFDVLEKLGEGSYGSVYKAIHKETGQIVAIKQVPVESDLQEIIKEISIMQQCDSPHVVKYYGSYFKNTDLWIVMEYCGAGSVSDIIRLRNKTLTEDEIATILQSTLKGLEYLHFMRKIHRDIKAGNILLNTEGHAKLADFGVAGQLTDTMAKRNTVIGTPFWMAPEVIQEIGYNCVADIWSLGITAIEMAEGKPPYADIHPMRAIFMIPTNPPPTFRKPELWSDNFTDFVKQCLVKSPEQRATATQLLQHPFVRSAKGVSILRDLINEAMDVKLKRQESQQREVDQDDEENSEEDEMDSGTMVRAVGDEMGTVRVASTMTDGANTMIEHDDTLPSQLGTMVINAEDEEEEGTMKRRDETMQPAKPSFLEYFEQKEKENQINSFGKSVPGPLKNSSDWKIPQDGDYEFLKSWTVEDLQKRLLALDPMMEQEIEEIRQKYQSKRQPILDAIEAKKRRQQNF

The target of assay [3] is Rho-associated protein kinase 2 (Homo sapiens, UniProt O75116).
For assay [4], the target named is Cyclin-dependent kinase 6 (Homo sapiens, UniProt Q00534).
For assay [5], the target named is T3, Bifunctional phosphoribosylaminoimidazole carboxylase/phosphoribosylaminoimidazole succinocarboxamide synthetase (Homo sapiens, UniProt P22234).
T3 sequence (P22234 whole entry): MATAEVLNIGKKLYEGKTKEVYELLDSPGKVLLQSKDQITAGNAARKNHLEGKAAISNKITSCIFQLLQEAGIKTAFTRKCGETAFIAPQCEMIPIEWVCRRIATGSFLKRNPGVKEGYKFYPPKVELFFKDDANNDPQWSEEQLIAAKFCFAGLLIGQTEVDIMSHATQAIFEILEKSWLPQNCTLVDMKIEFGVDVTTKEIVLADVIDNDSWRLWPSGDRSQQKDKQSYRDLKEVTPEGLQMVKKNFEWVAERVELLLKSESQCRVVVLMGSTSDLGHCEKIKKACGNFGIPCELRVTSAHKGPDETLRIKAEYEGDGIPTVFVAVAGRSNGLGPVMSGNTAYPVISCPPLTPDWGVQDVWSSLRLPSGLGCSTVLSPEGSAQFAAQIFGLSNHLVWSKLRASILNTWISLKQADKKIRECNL

Assay [6] addresses Eukaryotic translation initiation factor 2-alpha kinase 1 (Homo sapiens, UniProt Q9BQI3).
Assay [7] has as its target Ribosomal protein S6 kinase alpha-4 (Homo sapiens, UniProt O75676).
Assay [8] addresses T4, Ras-related protein Rab-10 (Homo sapiens, UniProt P61026).
T4 sequence (P61026 whole entry): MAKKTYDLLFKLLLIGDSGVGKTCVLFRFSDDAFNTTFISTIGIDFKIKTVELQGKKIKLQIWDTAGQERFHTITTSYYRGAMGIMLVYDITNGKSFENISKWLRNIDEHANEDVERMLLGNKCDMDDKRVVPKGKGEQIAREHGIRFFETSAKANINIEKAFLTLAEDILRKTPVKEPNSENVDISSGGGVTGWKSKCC

Assay [9] addresses T5, Serine/threonine-protein kinase Nek3 (Homo sapiens, UniProt P51956).
T5 sequence (P51956 whole entry): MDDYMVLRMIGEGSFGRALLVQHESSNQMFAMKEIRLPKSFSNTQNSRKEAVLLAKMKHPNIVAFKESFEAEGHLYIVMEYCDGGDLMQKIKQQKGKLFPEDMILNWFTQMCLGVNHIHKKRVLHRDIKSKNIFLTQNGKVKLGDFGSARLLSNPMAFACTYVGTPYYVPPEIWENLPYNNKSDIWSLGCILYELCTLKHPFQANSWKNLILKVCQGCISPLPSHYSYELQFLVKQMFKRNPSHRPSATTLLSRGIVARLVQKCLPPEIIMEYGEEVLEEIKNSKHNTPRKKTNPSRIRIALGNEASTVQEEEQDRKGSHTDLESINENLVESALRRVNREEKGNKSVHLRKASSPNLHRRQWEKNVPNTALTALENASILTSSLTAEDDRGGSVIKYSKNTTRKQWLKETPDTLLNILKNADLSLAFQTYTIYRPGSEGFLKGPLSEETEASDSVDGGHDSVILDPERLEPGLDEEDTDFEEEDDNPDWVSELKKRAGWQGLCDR

For assay [10], the target named is Serine/threonine-protein kinase MRCK beta (Homo sapiens, UniProt Q9Y5S2).
For assay [11], the target named is Mitogen-activated protein kinase kinase kinase kinase 5 (Homo sapiens, UniProt Q9Y4K4).
Sequence of Mitogen-activated protein kinase kinase kinase kinase 5 (Q9Y4K4 whole entry): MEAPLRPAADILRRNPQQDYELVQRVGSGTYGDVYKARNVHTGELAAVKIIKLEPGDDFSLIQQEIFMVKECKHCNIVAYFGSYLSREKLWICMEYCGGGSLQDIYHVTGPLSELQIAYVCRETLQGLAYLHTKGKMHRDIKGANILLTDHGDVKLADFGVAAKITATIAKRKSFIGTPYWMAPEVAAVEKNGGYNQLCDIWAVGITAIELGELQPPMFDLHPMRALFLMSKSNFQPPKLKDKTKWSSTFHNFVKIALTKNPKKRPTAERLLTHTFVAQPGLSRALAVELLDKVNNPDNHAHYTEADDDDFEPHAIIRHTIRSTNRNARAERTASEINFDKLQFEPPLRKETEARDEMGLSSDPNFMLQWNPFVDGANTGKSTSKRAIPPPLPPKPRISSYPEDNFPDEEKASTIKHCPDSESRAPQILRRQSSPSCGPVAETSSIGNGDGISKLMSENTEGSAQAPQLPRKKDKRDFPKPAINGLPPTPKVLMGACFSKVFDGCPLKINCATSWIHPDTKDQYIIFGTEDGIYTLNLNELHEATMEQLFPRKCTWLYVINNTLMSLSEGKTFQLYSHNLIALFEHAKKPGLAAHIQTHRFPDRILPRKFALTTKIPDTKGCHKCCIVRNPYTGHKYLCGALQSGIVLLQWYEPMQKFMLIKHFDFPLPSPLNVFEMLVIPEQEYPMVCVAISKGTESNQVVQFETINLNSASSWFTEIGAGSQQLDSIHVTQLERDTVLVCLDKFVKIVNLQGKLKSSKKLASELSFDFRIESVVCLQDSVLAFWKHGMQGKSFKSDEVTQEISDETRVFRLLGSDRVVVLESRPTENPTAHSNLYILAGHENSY

Sequence of Serine/threonine-protein kinase MRCK beta (Q9Y5S2 whole entry): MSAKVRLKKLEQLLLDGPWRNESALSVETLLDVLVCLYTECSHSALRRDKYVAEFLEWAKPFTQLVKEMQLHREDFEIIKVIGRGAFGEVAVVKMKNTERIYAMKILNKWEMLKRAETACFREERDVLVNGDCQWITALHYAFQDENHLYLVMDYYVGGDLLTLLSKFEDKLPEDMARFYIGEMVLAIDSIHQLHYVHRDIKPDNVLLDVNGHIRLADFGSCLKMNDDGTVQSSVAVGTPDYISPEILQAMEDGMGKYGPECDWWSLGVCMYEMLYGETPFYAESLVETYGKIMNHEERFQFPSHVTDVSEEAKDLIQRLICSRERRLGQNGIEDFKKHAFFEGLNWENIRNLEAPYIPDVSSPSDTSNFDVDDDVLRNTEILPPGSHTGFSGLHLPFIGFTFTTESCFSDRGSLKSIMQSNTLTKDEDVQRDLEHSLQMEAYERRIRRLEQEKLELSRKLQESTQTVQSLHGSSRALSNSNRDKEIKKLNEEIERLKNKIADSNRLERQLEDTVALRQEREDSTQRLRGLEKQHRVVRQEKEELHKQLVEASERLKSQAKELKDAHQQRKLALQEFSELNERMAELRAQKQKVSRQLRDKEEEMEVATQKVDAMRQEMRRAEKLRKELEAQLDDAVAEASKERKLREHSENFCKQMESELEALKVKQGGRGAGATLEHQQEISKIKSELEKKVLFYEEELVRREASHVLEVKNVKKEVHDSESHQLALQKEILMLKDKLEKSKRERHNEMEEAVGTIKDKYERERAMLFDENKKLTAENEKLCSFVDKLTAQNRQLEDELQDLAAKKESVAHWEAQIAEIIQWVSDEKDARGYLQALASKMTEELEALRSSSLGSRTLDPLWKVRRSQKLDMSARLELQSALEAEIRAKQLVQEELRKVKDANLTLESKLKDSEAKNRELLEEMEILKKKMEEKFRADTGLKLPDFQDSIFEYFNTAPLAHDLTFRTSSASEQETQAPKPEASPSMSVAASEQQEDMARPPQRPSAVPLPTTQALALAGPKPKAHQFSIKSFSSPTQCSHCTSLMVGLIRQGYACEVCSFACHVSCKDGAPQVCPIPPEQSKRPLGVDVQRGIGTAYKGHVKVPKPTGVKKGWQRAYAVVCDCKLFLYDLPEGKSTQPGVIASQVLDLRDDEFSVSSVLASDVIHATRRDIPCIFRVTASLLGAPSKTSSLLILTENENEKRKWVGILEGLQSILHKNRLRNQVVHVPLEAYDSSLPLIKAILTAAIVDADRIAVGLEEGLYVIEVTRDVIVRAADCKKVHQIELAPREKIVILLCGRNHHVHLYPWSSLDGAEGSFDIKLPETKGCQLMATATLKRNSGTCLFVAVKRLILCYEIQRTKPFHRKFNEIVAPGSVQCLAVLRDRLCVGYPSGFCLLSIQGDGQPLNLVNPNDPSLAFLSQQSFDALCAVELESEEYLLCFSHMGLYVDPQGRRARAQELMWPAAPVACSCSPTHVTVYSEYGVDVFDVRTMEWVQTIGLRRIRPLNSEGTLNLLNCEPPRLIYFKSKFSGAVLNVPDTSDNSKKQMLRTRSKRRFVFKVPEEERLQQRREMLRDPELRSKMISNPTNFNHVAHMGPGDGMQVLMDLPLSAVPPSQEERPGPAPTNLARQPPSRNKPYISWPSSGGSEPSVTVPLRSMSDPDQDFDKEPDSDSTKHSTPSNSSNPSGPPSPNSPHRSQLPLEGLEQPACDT
Sequence of Eukaryotic translation initiation factor 2-alpha kinase 1 (Q9BQI3 whole entry): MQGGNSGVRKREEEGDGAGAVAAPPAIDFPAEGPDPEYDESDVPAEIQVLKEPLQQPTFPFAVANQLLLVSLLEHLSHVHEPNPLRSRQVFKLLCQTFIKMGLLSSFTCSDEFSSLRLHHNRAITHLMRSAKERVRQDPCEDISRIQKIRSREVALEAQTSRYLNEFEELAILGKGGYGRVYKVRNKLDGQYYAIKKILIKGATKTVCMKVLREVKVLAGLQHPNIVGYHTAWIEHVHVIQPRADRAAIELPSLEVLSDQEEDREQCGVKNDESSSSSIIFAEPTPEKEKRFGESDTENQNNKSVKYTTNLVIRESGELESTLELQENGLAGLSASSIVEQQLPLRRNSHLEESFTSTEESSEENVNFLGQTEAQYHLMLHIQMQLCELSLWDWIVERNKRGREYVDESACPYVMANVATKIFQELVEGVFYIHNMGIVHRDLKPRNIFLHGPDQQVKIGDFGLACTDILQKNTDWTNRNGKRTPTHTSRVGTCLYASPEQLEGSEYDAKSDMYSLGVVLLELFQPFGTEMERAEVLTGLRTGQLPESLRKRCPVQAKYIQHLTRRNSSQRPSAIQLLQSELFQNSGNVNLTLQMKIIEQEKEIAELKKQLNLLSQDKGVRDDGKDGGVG
Sequence of Cyclin-dependent kinase 6 (Q00534 whole entry): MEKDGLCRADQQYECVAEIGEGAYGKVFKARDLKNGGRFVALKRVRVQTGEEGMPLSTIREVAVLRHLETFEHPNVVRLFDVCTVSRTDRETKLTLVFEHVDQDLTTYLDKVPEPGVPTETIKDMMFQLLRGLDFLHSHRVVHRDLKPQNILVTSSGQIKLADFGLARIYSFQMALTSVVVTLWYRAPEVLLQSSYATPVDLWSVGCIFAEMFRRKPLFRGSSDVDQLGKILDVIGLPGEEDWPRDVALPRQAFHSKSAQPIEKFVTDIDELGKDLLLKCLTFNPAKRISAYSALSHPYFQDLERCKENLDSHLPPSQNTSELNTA
Sequence of Rho-associated protein kinase 2 (O75116 whole entry): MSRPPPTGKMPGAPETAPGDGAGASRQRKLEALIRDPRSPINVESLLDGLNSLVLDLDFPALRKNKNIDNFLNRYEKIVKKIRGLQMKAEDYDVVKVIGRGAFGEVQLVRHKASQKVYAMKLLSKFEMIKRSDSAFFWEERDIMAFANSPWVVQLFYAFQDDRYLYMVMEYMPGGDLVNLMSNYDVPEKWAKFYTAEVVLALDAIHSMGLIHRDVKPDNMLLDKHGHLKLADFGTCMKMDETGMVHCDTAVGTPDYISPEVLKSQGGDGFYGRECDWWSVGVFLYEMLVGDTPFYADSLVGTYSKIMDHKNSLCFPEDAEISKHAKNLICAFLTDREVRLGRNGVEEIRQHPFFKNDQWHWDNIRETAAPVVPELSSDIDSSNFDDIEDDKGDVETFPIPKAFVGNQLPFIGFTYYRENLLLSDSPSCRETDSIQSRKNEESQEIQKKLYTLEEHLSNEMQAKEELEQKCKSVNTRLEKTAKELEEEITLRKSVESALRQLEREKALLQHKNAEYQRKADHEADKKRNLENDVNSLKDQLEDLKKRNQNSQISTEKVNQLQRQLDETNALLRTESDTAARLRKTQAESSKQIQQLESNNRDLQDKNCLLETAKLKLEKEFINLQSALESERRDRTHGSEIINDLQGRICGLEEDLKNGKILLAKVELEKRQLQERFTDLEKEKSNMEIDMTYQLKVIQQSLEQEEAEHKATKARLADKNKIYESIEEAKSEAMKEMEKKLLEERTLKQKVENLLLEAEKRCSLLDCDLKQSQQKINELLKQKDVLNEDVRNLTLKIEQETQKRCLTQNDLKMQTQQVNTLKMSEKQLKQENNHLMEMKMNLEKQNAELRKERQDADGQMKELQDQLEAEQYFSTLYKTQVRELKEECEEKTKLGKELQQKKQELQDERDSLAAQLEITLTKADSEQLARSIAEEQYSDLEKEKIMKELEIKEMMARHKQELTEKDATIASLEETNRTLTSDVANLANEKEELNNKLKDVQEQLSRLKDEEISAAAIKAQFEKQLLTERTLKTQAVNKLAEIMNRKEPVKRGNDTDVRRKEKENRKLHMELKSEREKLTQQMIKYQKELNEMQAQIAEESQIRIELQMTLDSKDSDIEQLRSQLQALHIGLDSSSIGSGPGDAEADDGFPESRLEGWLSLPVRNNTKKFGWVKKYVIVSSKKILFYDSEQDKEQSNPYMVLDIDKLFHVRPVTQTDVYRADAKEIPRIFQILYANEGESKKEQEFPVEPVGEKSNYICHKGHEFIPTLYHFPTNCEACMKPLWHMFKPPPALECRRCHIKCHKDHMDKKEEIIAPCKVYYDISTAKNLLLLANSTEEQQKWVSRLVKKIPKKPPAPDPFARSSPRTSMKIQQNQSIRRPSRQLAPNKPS

In the case of `CC[C@@H]1C(=O)N(C)c2cnc(Nc3ccc(C(=O)N[C@H]4CC[C@H](N5CCN(CC6CC6)CC5)CC4)cc3OC)nc2N1C(C)C` [VOLASERTIB], the Kd in assay [1], in assay [2], in assay [3], in assay [4], in [5] and in assay [6] was > 30 µM (inactive) each time. For the same molecule, the Kd (as a rule, the equilibrium constant for the complex coming apart) in [7] is > 30 µM (inactive); in [8] it was > 30 µM (inactive); in [9], 2.96 µM (active); in assay [10], > 30 µM (inactive); in assay [11], > 30 µM (inactive).

Regarding `CNC(=O)c1ccc(-c2cnc3ncc(Cc4ccc5ncccc5c4)n3n2)cc1F` [CAPMATINIB], the Kd in [1], in assay [2], in [3], in assay [4], in [5] and in assay [6] was > 30 µM (inactive) in each case. Besides, the Kd in assay [7], in [9], in assay [10] and in assay [11] was > 30 µM (inactive) in each case.

On to `O=C(Nc1cccc(Cl)c1)Nc1ncc(CCNc2ncnc3ccsc23)s1` [SNS-314], for which the Kd in assay [1], in assay [2], in assay [4], in assay [5], in [6] and in assay [7] was > 30 µM (inactive) throughout. Moreover, the Kd in [8], in assay [9] and in assay [10] was > 30 µM (inactive) throughout.

Regarding `CCc1cnn2c(NCc3ccc[n+]([O-])c3)cc(N3CCCC[C@H]3CCO)nc12` [DINACICLIB], the Kd in [1] was 2.44 µM (active); in assay [2], > 30 µM (inactive); in assay [3], > 30 µM (inactive); in assay [5], > 30 µM (inactive); in [6] it was > 30 µM (inactive); in assay [7], > 30 µM (inactive). Moreover, the Kd in [8], in assay [9], in assay [10] and in [11] was > 30 µM (inactive) throughout.

Regarding `COc1cc2nccc(Oc3ccc(NC(=O)NC4CC4)c(Cl)c3)c2cc1C(N)=O` [LENVATINIB], the Kd in assay [1], in assay [2], in assay [3], in assay [4], in assay [5] and in assay [6] was > 30 µM (inactive) in each case. The Kd in assay [7], in assay [8], in [9] and in [10] was > 30 µM (inactive) each time.

Regarding `CNC(=O)c1ccc(C)c(-n2c(C)cc(OCc3ccc(F)cc3F)c(Br)c2=O)c1` [PH-797804], the Kd in [1], in assay [2], in [4], in [5], in assay [6] and in [7] was > 30 µM (inactive) in each case. The Kd in assay [8], in [9], in assay [10] and in assay [11] was > 30 µM (inactive) each time.

On to `COc1cc2nccc(Oc3ccc(NC(=O)Nc4cc(C)on4)c(Cl)c3)c2cc1OC` [TIVOZANIB], for which the Kd in assay [1], in [2], in assay [3], in assay [4], in [5] and in [6] was > 30 µM (inactive) each time. Further, the Kd in assay [7], in assay [8], in assay [9] and in assay [10] was > 30 µM (inactive) in each case.

As for `N[C@@H]1CCCN(c2c(/C=C3\SC(=O)NC3=O)cccc2-c2ccccc2)C1`, the Kd in assay [1], in [2], in assay [3], in assay [5], in assay [6] and in [7] was > 30 µM (inactive) each time. Also, the Kd in assay [8], in assay [9], in [10] and in assay [11] was > 30 µM (inactive) throughout.

Consider `CN(C)C(=O)c1cc2cnc(Nc3ccc(N4CCNCC4)cn3)nc2n1C1CCCC1` [RIBOCICLIB], for which the Kd in assay [1], in [2], in [3], in assay [5], in [6] and in assay [7] was > 30 µM (inactive) in each case. Besides, the Kd in assay [8], in [9], in assay [10] and in assay [11] was > 30 µM (inactive) in each case.

For the molecule `CN1N=C(N)c2cn([C@@H]3O[C@H](COP(=O)(O)O)[C@@H](O)[C@H]3O)c3ncnc1c23` [TRICIRIBINE PHOSPHATE], the Kd in assay [1], in assay [2], in assay [3], in assay [4], in assay [5] and in [7] was > 30 µM (inactive) each time. Also, the Kd in [8], in assay [9], in assay [10] and in [11] was > 30 µM (inactive) throughout.
